Experimental data taken from patent US11267800B2, “Cyclohexyl acid triazole azines as LPA antagonists” (BRISTOL-MYERS SQUIBB COMPANY, priority 2017, dated 2022).

What was measured:
[1] = tested on: IPF patients; conditions: 26-week clinical trial in IPF patients (Palmer et al.); cited from earlier work
[2] = molecular target: T1, human LPA1 (Homo sapiens, UniProt Q92633); test: LPA1 functional antagonist assay (calcium flux); type: cell-based; conditions: CHO cells overexpressing human LPA1; inhibition of calcium flux induced by 10 nM LPA; read-out: hLPA1 IC50
T1 construct: expressed in transfected cells; host or cells: Chinese hamster ovary (CHO) cells
T1 sequence (Q92633 whole entry): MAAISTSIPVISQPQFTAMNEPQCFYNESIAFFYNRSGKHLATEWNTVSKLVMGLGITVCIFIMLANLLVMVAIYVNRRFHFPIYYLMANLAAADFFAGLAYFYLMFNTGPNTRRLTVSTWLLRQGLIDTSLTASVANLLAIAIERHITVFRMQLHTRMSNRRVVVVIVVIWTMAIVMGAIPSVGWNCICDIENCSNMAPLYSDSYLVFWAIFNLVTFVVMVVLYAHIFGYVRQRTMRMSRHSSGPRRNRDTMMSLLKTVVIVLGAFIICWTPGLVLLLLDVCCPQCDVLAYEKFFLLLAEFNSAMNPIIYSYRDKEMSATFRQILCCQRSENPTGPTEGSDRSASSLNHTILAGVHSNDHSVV
Procedure, shortened: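 IC50 values come from 4-parameter logistic fits and mark 50% block of the calcium flux evoked by 10 nM LPA. Human LPA1-overexpressing CHO cells were calcium-dye loaded at 37 °C, then given test compound (0.08 nM–5 μM, 0.5% DMSO, HEPES-buffered HBSS with 0.1% fatty-acid-free BSA) for 20 min at room temperature before agonist.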

[3] = tested on: nerve-injured mice; conditions: pretreatment, nerve-injured mice (Inoue et al.); cited from earlier work
[4] = tested on: mouse epithelial renal cell line, MCT; conditions: co-treatment with LPA, MCT cells; cited from earlier work
[5] = tested on: pancreatic cancer cell lines; conditions: cited from earlier work
[6] = tested on: human foetal lung fibroblasts; conditions: Tager et al.; cited from earlier work
[7] = tested on: UUO mice; conditions: cited from earlier work

| IC50 [2] | Compound | also measured |
| --- | --- | --- |
| – | Cc1noc(-c2ccc(-c3ccc(C4(C(=O)O)CC4)cc3)cc2)c1NC(=O)O[C@H](C)c1ccccc1 [BMS-986020] | rate of FVC (forced vital capacity) decline [1]: significantly reduce |
| 12 nM | CCCCc1cncc(NCc2c(-c3ccc(O[C@H]4CCC[C@H](C(=O)O)C4)c(C)n3)nnn2C)n1 [Example 382] | – |
| 227 nM | Cc1nc(-c2nnn(C)c2CNc2nccc(OC3CC3)n2)c(F)cc1O[C@H]1CCC[C@H](C(=O)O)C1 [Example 383] | – |
| 48 nM | CCOc1ccnc(NCc2c(-c3nc(C)c(O[C@H]4CCC[C@H](C(=O)O)C4)cc3F)nnn2C)n1 [Example 384] | – |
| 41 nM | CCc1nc(-c2nnn(C)c2CNc2nccc(C(C)(C)C)n2)ccc1O[C@H]1CCC[C@H](C(=O)O)C1 [Example 385] | – |
| 460 nM | CCc1nc(-c2nnn(C)c2CNc2nccc(OC)n2)ccc1O[C@H]1CCC[C@H](C(=O)O)C1 [Example 386] | – |
| 24 nM | CCc1nc(-c2nnn(C)c2CNc2nccc(C3CCC3)n2)ccc1O[C@H]1CCC[C@H](C(=O)O)C1 [Example 387] | – |
| 45 nM | CCc1nc(-c2nnn(C)c2CNc2nccc(C3CC3)n2)ccc1O[C@H]1CCC[C@H](C(=O)O)C1 [Example 388] | – |
| 9.3 nM | CCc1nc(-c2nnn(C)c2CNc2nccc(C(C)C)n2)ccc1O[C@H]1CCC[C@H](C(=O)O)C1 [Example 389] | – |
| 17 nM | CCc1nc(-c2nnn(C)c2CNc2nccc(OC3CC3)n2)ccc1O[C@H]1CCC[C@H](C(=O)O)C1 [Example 390] | – |
| 208 nM | CCc1nc(-c2nnn(C)c2CNc2ccnc(OC3CC3)n2)ccc1O[C@H]1CCC[C@H](C(=O)O)C1 [Example 391] | – |
| 15 nM | CCCOc1ccnc(NCc2c(-c3ccc(O[C@H]4CCC[C@H](C(=O)O)C4)c(CC)n3)nnn2C)n1 [Example 392] | – |
| 15 nM | CCOc1ccnc(NCc2c(-c3ccc(O[C@H]4CCC[C@H](C(=O)O)C4)c(CC)n3)nnn2C)n1 [Example 393] | – |
| 103 nM | Cc1nc(-c2nnn(C)c2Nc2nccc(OCCC(F)(F)F)n2)ccc1O[C@H]1CCC[C@H](C(=O)O)C1 [Example 394] | – |
| 51 nM | Cc1nc(-c2nnn(C)c2Nc2nccc(OCCCF)n2)ccc1O[C@H]1CCC[C@H](C(=O)O)C1 [Example 395] | – |
| 42 nM | Cc1nc(-c2nnn(C)c2Nc2nccc(OCC(F)(F)F)n2)ccc1O[C@H]1CCC[C@H](C(=O)O)C1 [Example 396] | – |
| 1030 nM | Cc1nc(-c2nnn(C)c2CNc2cccc(Cc3ccccc3)n2)ccc1O[C@H]1CCC[C@H](C(=O)O)C1 [Example 397] | – |
| 27 nM | CCCc1cccc(NCc2c(-c3ccc(O[C@H]4CCC[C@H](C(=O)O)C4)c(C)n3)nnn2C)n1 [Example 398] | – |
| 531 nM | Cc1nc(-c2nnn(C)c2CNc2cccc(C3CC3)n2)ccc1O[C@H]1CCC[C@H](C(=O)O)C1 [Example 399] | – |
| 679 nM | Cc1nc(-c2nnn(C)c2CCNc2nccc(C(C)(C)C)n2)ccc1O[C@H]1CCC[C@H](C(=O)O)C1 [Example 400, (1S,3S)-3-((6-(5-(2-((4-(tert-butyl)pyrimidin-2-yl)amino)ethyl)-1-methyl-1H-1,2,3-triazol-4-yl)-2-methylpyridin-3-yl)oxy)cyclohexane-1-carboxylic acid] | – |
| 1590 nM | Cc1nc(-c2nnn(C)c2CCNc2nccc(C(C)C)n2)ccc1O[C@H]1CCC[C@H](C(=O)O)C1 [Example 401] | – |
| 36 nM | CCOc1cc(C2CCC2)nc(NCc2c(-c3ccc(O[C@H]4CCC[C@H](C(=O)O)C4)c(C)n3)nnn2C)n1 [Example 402] | – |
| 2310 nM | Cn1nnc(-c2ccc(O[C@H]3CCC[C@H](C(=O)O)C3)cn2)c1CNc1ccnc(OCC2(C)CC2)n1 [Example 403] | – |
| 173 nM | Cn1nnc(-c2ccc(O[C@H]3CCC[C@H](C(=O)O)C3)cn2)c1COc1nccc(C(F)(F)F)n1 [Example 404] | – |
| 129 nM | Cc1nc(-c2nnn(C)c2COc2cc(-n3ccnn3)ncn2)ccc1O[C@H]1CCC[C@H](C(=O)O)C1 [Example 405] | – |
| 18 nM | CC(C)c1ccnc(NCc2c(-c3ccc(O[C@H]4CCC[C@H](C(=O)O)C4)c(C#N)n3)nnn2C)n1 [Example 406] | – |
| 104 nM | Cn1nnc(-c2ccc(O[C@H]3CCC[C@H](C(=O)O)C3)c(C#N)n2)c1CNc1nccc(C(C)(C)C)n1 [Example 407] | – |
| 22 nM | CCCOc1ccnc(NCc2c(-c3ccc(O[C@H]4CCC[C@H](C(=O)O)C4)c(C#N)n3)nnn2C)n1 [Example 408] | – |
| – | C[C@@H](N)[C@H]1CC[C@H](C(=O)Nc2ccncc2)CC1 [Example Y-27632] | allodynia and hyperalgesia [3]: completely abolished |
| – | Cc1noc(-c2ccc(CSCCC(=O)O)cc2)c1NC(=O)OC(C)c1ccccc1Cl (stereo not shown) [Ki16425] | LPA-induced increase in expression of CTGF [4]: almost completely suppressed; LPA-induced and ascites-induced invasion activity ([5]; highly peritoneal metastatic pancreatic cancer cell line (Yamada et al.)): blocked; in vitro migration in response to LPA and peritoneal fluid (ascites) from pancreatic cancer patients ([5]; pancreatic cancer cell lines (Yamada et al.)): effectively blocked; chemotaxis of human foetal lung fibroblasts induced by BAL from IPF patients [6]: blocked; development of renal fibrosis [7]: closely resembled the profile of LPA1 (−/−) mice |
